TGI and GI50 data for 25 compounds are collected here from PubChem BioAssay (NCI).

Holding throughout (assay): growth of human tumour cells (NCI), 48 h
The subject of assay [1] is NCI-H226 lung.
The test system of assay [2] is MCF7 breast.
The test system of assay [3] is HOP-62 NSCLC.
Assay [4] concerns HS 578T breast.
Assay [5] has as its system UACC-62 melanoma.
The subject of assay [6] is LOX IMVI melanoma.
The subject of assay [7] is COLO 205 colon.
Assay [8] has as its system NCI/ADR-RES ovarian.
Assay [9] deals with HCT-15 colon.
The subject of assay [10] is HT29 colon.

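The compound was tested at five concentrations on cells cultured in 96-well plates, with a 48-hour exposure period. GI50: concentration for 50% inhibition of growth. TGI denotes the concentration required for complete inhibition of growth.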

For `CC(=O)OCC1OC(Nc2ccc3nc(C)n(-c4cccc(C)c4)c(=O)c3c2)C(OC(C)=O)C(OC(C)=O)C1OC(C)=O` (stereo not given), the TGI in assay [1], in assay [2], in [3], in assay [4], in assay [5] and in [6] was more than 62.5 µM in each case. The TGI in assay [7], in assay [8], in [9] and in assay [10] was more than 62.5 µM each time.
In the case of `OC1c2ccccc2[C@@H]2[C@H]1[C@@H](c1ccccc1)C1(Cc3ccccc3C1O)[C@H]2c1ccccc1` (stereo not given in full), the TGI is 19.4 µM in assay [1]; 4.7 µM in assay [2]; 22.9 µM in assay [3]; 25.1 µM in [4]; 20.6 µM in [5]; 7.04 µM in [6]. Also, the TGI in assay [7] worked out at 3.62 µM; in assay [8], 16.6 µM; in [9], 15.1 µM; in [10] it was 6.87 µM.
With `O=C1/C(=C\c2ccc([N+](=O)[O-])cc2)Sc2scc(-c3ccc(O)c(O)c3)[n+]21`, the TGI in assay [1] was more than 100 µM; in assay [2], 15.3 µM; in assay [3] it was 27.5 µM; in [4], 63.7 µM; in assay [5], 23.4 µM; in [6], more than 100 µM. The TGI in [7] is 6.07 µM; in assay [8], 50.1 µM; in assay [9] it was 14.1 µM; in assay [10], 15.7 µM.
Turning to `CCOC(=O)N1CCN(Cc2cc(=O)n3cc(C)ccc3n2)CC1`, the TGI in assay [1], in assay [2], in assay [3], in [4], in assay [5] and in assay [6] was more than 100 µM in each case. Also, the TGI in assay [7], in [8], in assay [9] and in assay [10] was more than 100 µM each time.
For the compound `COc1cc([C@@H]2c3cc4c(cc3[C@H](OC3OC5COC(C(C)C)OC5C(O)C3O)C3COC(=O)[C@@H]32)OCO4)cc(OC)c1O` (stereo not given in full), the TGI is 24 µM in [1]; 16 µM in assay [2]; 24.4 µM in assay [3]; 42.3 µM in [4]; 24.7 µM in [5]; 30 µM in assay [6]. The TGI was 19.9 µM in assay [7], more than 100 µM in assay [8], 25.9 µM in assay [9] and 11.1 µM in [10].
Regarding `CC(O)c1c2c(cc3c1CC1(C3)Cc3cc4c(c(C(C)O)c3C1)CCC4)CCC2` (stereo not given), the TGI in [1] came out at 34 µM; in [2] it was 59.5 µM; in assay [3] it was 38.8 µM; in assay [4], 52.8 µM; in assay [5] it was 40.7 µM; in assay [6], 32.8 µM. The TGI in assay [7] came to 28.6 µM; in assay [8], 70.4 µM; in assay [9], 41.1 µM; in assay [10], 28.3 µM.
On to `N#Cc1cccc(C2ON=C(c3ccc([N+](=O)[O-])cc3)N2C23CC4CC(CC(C4)C2)C3)c1` (stereo not given), for which the TGI in [1], in [2], in assay [3], in assay [4], in [5] and in assay [6] was more than 100 µM in each case. Moreover, the TGI in [7], in [8], in assay [9] and in assay [10] was more than 100 µM in each case.
As for `Cc1cn(CC2=NCCN2)c(=O)[nH]c1=O`, the TGI in [1], in [2], in [3], in assay [4], in [5] and in assay [6] was more than 100 µM throughout. Besides, the TGI in [7], in [8], in [9] and in assay [10] was more than 100 µM in each case.
For the compound `O=C1NCC2(CCNCC2)N1c1ccccc1`, the TGI in assay [1], in [2], in assay [3], in assay [4], in assay [5] and in [6] was more than 100 µM in each case. The TGI in assay [7], in [8], in assay [9] and in [10] was more than 100 µM in each case.
With `COc1ccc(/C=C2\CN(C(=O)CCN3CCC(=NO)CC3)C/C(=C\c3ccc(OC)cc3)C2=O)cc1`, the GI50 in assay [1] is 2.51 µM; in assay [2] it was 0.619 µM; in assay [3] it was 2.03 µM; in assay [4], 3.64 µM; in [5], 1.89 µM; in [6] it was 1.47 µM. For the same compound, the GI50 was 2.04 µM in assay [7], 3.72 µM in assay [8], 2.15 µM in assay [9] and 2.04 µM in assay [10]. For the same compound, the TGI in assay [1] worked out at 7.54 µM; in [2], 4.86 µM; in [3], 4.59 µM; in [4] it was 18.6 µM; in assay [5], 4.38 µM; in assay [6], 2.96 µM. For the same compound, the TGI in assay [7] was found to be 4.11 µM; in assay [8] it was 20.8 µM; in assay [9] it was 5.56 µM; in assay [10] it was 4.45 µM.
Take `CC(C)(C)c1cc(C(=O)/C=C/c2ccc(O)c(O)c2O)cc(C(C)(C)C)c1O`: the TGI in [1] was 33.2 µM; in [2], 27.2 µM; in assay [3], 27.8 µM; in assay [4], more than 45.1 µM; in assay [5] it was 18.8 µM; in assay [6], 24.3 µM. Further, the TGI in assay [7] was 26.3 µM; in assay [8] it was 14.8 µM; in [9], 14.8 µM; in assay [10], 27.7 µM.
With `CC[C@@H](CCCC[C@@H]1CC[C@H]2CC(=O)C[C@@H]12)OC`, the TGI in assay [1], in [2], in [3], in assay [4], in assay [5] and in assay [6] was more than 100 µM each time. Besides, the TGI in [7], in assay [8], in assay [9] and in [10] was more than 100 µM each time.
Regarding `Cc1nc(-c2ccccc2)c(C)n2c1nc1ccccc12`, the TGI in assay [1] was more than 100 µM; in [2] it was 86.1 µM; in [3], more than 100 µM; in [4] it was more than 100 µM; in assay [5] it was 41 µM; in assay [6] it was more than 100 µM. Further, the TGI in [7] is more than 100 µM; in assay [8], 69.7 µM; in assay [9] it was 74.5 µM; in assay [10], more than 100 µM.
With `COc1cc(N(CCC#N)CCC#N)ccc1/C(N=Nc1ccc(C)cc1)=N/NC(=O)c1cc(Br)ccc1O`, the TGI was more than 100 µM in assay [1]; more than 100 µM in assay [2]; 96.5 µM in [3]; more than 100 µM in assay [4]; 45.1 µM in [5]; 59 µM in assay [6]. The TGI in assay [7] is 29.1 µM; in assay [8], more than 100 µM; in assay [9] it was 33 µM; in assay [10] it was more than 100 µM.
`CC(=O)Nc1ccc(Nc2cc(=O)n(C)c(=O)[nH]2)cc1`: the TGI in assay [1], in assay [2], in assay [3], in assay [4], in assay [5] and in [6] was more than 100 µM each time. In addition, the TGI in [7], in [8], in assay [9] and in assay [10] was more than 100 µM throughout.
Consider `CC(CC(=O)CO[C@H]1[C@H](O)[C@@H](O)[C@@H](O)[C@@H]2NC(=O)c3c(cc4c(c3O)OCO4)[C@H]21)OC1OC(CO)C(O)C(O)C1O` (stereo not given in full), for which the TGI is 3.54 µM in assay [1]; 1.47 µM in assay [2]; 2.29 µM in [3]; 3.76 µM in [4]; 4.17 µM in assay [5]; 1.32 µM in [6]. Further, the TGI in assay [7] was found to be 1.16 µM; in assay [8], 3.97 µM; in assay [9], 3.43 µM; in assay [10], 2.32 µM.
As for `CN(C)CCN1C(=O)CC[C@@]2(C)C1=CC[C@@H]1[C@@H]2CC[C@@]2(C)[C@H]1CC[C@]2(C)O`, the TGI in assay [1], in [2], in assay [3], in assay [4], in [5] and in assay [6] was more than 100 µM throughout. The TGI in assay [7], in [8], in assay [9] and in assay [10] was more than 100 µM throughout.
For `COC(=O)C1Cc2ccc(C)cc2C1=O` (stereo not given), the TGI in assay [1], in [2], in assay [3], in assay [4], in [5] and in assay [6] was more than 100 µM each time. Further, the TGI in assay [7], in [8], in assay [9] and in [10] was more than 100 µM in each case.
Turning to `N#C/C(=C1\N=C(c2ccccc2O)Oc2ccccc21)c1ccc([N+](=O)[O-])cc1`, the TGI in [1], in [2], in [3], in [4], in assay [5] and in assay [6] was more than 100 µM in each case. The TGI in assay [7], in [8], in assay [9] and in assay [10] was more than 100 µM each time.
Consider `CCOC(=O)c1c(O)[nH]c(=O)c(CC)c1C`, for which the TGI in assay [1], in assay [2], in assay [3], in assay [4], in [5] and in [6] was more than 100 µM in each case. Besides, the TGI in [7], in [8], in assay [9] and in assay [10] was more than 100 µM in each case.
Consider `CC(=O)OC1/C(=C/c2ccc([N+](=O)[O-])cc2)C[C@H]2[C@@H]3CC=C4C[C@@H](OC(C)=O)CC[C@]4(C)[C@H]3CC[C@]12C` (stereo not given in full), for which the TGI in assay [1], in [2], in assay [3], in assay [4], in [5] and in assay [6] was more than 100 µM throughout. The TGI in [7], in assay [8], in [9] and in [10] was more than 100 µM in each case.
As for `CN(C)CCOc1ccc(I)cc1Cc1ccccc1`, the TGI was found to be 33.9 µM in [1]; 27.5 µM in [2]; 28.6 µM in [3]; 29.3 µM in assay [4]; 13.1 µM in assay [5]; 19.2 µM in assay [6]. The TGI in assay [7] came out at 26.7 µM; in assay [8], 29.8 µM; in assay [9], 25.1 µM; in assay [10], 17 µM.
On to `C[C@H](CCC1=NCCN1)[C@H]1CC[C@H]2[C@@H]3[C@H](O)C[C@@H]4C[C@H](O)CC[C@]4(C)[C@H]3CC[C@]12C`, for which the TGI in assay [1] is 30.2 µM; in assay [2], 28.5 µM; in assay [3] it was 29.7 µM; in assay [4], 28.5 µM; in assay [5], 23.5 µM; in assay [6] it was 22.8 µM. Moreover, the TGI in assay [7] was 21.1 µM; in assay [8], more than 100 µM; in [9] it was 30.1 µM; in assay [10] it was 10.4 µM.
Consider `COC(=O)[C@@H]1C=C[C@@H](C#N)n2c(=O)n(-c3ccccc3)c(=O)n21`, for which the TGI was 40.4 µM in assay [1]; more than 100 µM in assay [2]; 56.2 µM in assay [3]; more than 100 µM in assay [4]; more than 100 µM in [5]; 48.4 µM in assay [6]. In addition, the TGI in [7] was more than 100 µM; in assay [8], 68 µM; in assay [9], more than 100 µM; in assay [10], 93.2 µM.
With `CC(=O)Oc1ccc(N2C(=O)C3c4[nH]c5ccccc5c4C4CCC(C(C)(C)C)CC4C3C2=O)cc1` (stereo not given), the TGI in assay [1] is 26.1 µM; in [2], 13.7 µM; in [3] it was 13.5 µM; in assay [4], 8.82 µM; in [5], 20.7 µM; in [6], 14.3 µM. Moreover, the TGI in assay [7] was found to be 17.5 µM; in [8] it was 14.7 µM; in assay [9], 12.3 µM; in assay [10], 9.38 µM.
